From ChEMBL document CHEMBL2074188, “Effects of the flavonoids biochanin A, morin, phloretin, and silymarin on P-glycoprotein-mediated transport” (J Pharmacol Exp Ther, 2003)

Key:
Assay type in all cases: functional, cell-based
[1] = biological target: T1, ATP-dependent translocase ABCB1 (Homo sapiens, UniProt P08183); assay: TP_TRANSPORTER: cell accumulation of daunomycin in MDA435/LCC6MDR1 cells
[2] = biological target: T1, ATP-dependent translocase ABCB1; assay: TP_TRANSPORTER: increase in Daunomycin intracellular accumulation (Daunomycin: 0.05 uM, Silymarin: 50 uM) in MDA435/LCC6 MDR1 cells; settings: mda-mb-435/lcc6 mdr1, 50 µM
[3] = biological target: T1, ATP-dependent translocase ABCB1; assay: TP_TRANSPORTER: increase in Daunomycin intracellular accumulation (Daunomycin: 0.05 uM, Morin: 50 uM) in MDA435/[…] cells
[4] = biological target: T1, ATP-dependent translocase ABCB1; assay: TP_TRANSPORTER: increase in Daunomycin intracellular accumulation (Daunomycin: 0.05 uM, BiochaninA: 50 uM) in MDA435/[…] cell

T1 sequence (P08183 whole entry): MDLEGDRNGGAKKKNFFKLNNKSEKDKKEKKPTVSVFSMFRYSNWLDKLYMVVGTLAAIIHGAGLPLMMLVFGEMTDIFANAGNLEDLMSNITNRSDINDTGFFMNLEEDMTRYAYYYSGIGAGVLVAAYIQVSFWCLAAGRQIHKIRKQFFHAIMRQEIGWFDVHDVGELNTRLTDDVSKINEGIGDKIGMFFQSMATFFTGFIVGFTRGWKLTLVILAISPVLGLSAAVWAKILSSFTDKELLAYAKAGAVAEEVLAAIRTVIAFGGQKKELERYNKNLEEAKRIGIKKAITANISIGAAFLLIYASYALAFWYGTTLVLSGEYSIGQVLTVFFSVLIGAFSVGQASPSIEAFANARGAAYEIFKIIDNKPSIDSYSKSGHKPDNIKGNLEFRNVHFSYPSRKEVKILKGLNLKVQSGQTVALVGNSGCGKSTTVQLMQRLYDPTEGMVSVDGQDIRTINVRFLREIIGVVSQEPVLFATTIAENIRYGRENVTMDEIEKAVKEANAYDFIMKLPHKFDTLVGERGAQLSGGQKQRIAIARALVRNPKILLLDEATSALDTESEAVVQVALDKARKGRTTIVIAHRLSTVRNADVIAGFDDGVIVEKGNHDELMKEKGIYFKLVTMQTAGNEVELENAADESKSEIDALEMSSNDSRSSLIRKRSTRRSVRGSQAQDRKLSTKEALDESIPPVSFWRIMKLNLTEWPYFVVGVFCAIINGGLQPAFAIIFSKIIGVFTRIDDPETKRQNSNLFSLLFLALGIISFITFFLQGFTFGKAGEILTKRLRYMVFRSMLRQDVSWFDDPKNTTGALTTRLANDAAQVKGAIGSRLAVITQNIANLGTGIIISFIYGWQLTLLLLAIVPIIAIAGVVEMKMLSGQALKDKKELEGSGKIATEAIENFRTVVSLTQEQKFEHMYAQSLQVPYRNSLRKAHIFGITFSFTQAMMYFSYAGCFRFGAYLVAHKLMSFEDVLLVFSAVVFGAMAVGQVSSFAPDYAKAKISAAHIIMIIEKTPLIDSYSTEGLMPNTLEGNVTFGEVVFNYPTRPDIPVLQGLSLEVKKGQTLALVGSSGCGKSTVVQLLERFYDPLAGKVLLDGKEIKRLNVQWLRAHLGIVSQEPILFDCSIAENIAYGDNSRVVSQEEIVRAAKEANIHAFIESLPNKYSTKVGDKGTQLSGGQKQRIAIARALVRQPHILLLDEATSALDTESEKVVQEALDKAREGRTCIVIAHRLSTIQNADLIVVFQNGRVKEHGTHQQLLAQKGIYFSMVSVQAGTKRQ

Activity [1] | Molecule | Activity [2] | Activity [3] | Activity [4]
inhibitor [+] | COc1ccc(CCN(C)CCCC(C#N)(c2ccc(OC)c(OC)c2)C(C)C)cc1OC (stereo not drawn) [VERAPAMIL] | – | – | –
inhibitor [+] | SILYMARIN | inhibitor [(at a rough estimate) 420 % of control] | – | –
inhibitor [+] | O=c1c(O)c(-c2ccc(O)cc2O)oc2cc(O)cc(O)c12 [MORIN] | – | inhibitor [(at a rough estimate) 585 % of control] | –
inhibitor [+] | O=C(CCc1ccc(O)cc1)c1c(O)cc(O)cc1O [PHLORETIN] | – | – | –
inhibitor [+] | COc1ccc(-c2coc3cc(O)cc(O)c3c2=O)cc1 [BIOCHANIN] | – | – | inhibitor [(at a rough estimate) 645 % of control]
